This experiment addresses T1, human CCR6 (Homo sapiens, UniProt P51684).
T1 construct: expressed in transfected cells; host or cells: HEK-293
T1 sequence (P51684 1-374): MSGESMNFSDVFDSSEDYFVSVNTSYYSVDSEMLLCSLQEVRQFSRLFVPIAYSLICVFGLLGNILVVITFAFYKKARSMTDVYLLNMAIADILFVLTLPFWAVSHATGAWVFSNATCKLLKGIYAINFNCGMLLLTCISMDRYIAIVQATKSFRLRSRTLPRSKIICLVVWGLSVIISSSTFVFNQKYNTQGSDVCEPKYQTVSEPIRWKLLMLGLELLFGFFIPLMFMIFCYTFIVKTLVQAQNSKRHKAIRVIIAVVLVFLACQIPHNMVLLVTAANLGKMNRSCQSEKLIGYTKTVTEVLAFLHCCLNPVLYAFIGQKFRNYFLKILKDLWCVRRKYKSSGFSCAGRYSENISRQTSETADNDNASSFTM
Nature of the experiment: FLIPR assay: inhibition of CCL20-induced calcium signal in HEK-293 cells expressing human CCR6. It is filed as cell-based. The following applies: engineered HEK-293 cells expressing human CCR6; agonist CCL20 10 nM; 30 min preincubation; Fluo-8-AM; mean values if determined several times. The procedure:
FLIPR assay: The bioactivity of compounds is tested in a fluorometric imaging plate reader (FLIPR: Molecular Devices) using engineered HEK-293 cells expressing the human CCR6 (GenBank: AY242126). Frozen cells are plated on Poly-L-Lysine precoated 384-well plates 2 days prior to bioassay in DMEM medium supplemented with 10% FCS and 1% Penicillin-Streptomycin. At the day of bioassay, cell supernatant is discarded and cells are dye loaded for 30 minutes at room temperature in the dark with Fluo-8-AM (Focus Biomolecules) in Hanks Balanced Salt Solution (Gibco), buffered with 20 mM Hepes at pH 6.75 and supplemented with 0.05% BSA. This buffer, but lacking the dye, is also used for washing and compound dilution steps (assay buffer). Cells are washed free of excess dye with a wash-station (Biotek), leaving 40 microliter of assay buffer at the end. Cells were incubated for 15 minutes at room temperature in the dark, before adding compounds. Stock solutions of test compounds are made up at a concentration of 10 mM in DMSO, and serially diluted first in DMSO and then transferred in assay buffer to concentrations required for inhibition dose response curves. After a 45 minute incubation period in assay buffer at room temperature, 10 microliters of each compound dilution are transferred from a compound plate to the plate containing the recombinant cells in the FLIPR instrument according to the manufacturer's instructions. After cells and compounds were preincubated for 30 minutes at room temperature in the dark, 10 microliter agonist CCL20 (Peprotech) at a final concentration of 10 nM is added, again using the FLIPR instrument. Changes in fluorescence are monitored before and after addition of the test compounds and agonist. Emission peak values above base level after CCL20 addition are exported after base line subtraction. The calculated IC50 values may fluctuate depending on the daily assay performance. Fluctuations of this kind are known to those skilled in the art. In the case where IC50 values have been determined several times for the same compound, mean values are given.
In general, IC50 refers to the concentration that inhibits the measured activity by half. Turning to `CN1CC(C)([C@](O)(c2ccc(C3CC3)cc2)c2cncc(-c3nc(C4CCOCC4)n(C4CC4)n3)c2)C1` [Example 25, (R)-(4-Cyclopropyl-phenyl)-{5-[1-cyclopropyl-5-(tetrahydro-pyran-4-yl)-1H-[1,2,4]triazol-3-yl]-pyridin-3-yl}-(1,3-dimethyl-azetidin-3-yl)-methanol], the IC50 was 163 nM. Then `CC(C)c1ccc([C@](O)(c2cncc(-c3nc(-c4cccnc4)n(C4CC4)n3)c2)C2(C)CN(C)C2)cc1` [Example 24, (R)-[5-(1-Cyclopropyl-5-pyridin-3-yl-1H-[1,2,4]triazol-3-yl)-pyridin-3-yl]-(1,3-dimethyl-azetidin-3-yl)-(4-isopropyl-phenyl)-methanol], with 50.1 nM; and `CC(C)c1ccc([C@](O)(c2cncc(-c3nc(C4CCOCC4)n(CCO)n3)c2)C2(C)CN(C)C2)cc1` [Example 17, 2-[3-{5-[(R)-(1,3-Dimethyl-azetidin-3-yl)-hydroxy-(4-isopropyl-phenyl)-methyl]-pyridin-3-yl}-5-(tetrahydro-pyran-4-yl)-[1,2,4]triazol-1-yl]-ethanol], with 509 nM; and `CC(C)c1ccc([C@](O)(c2cncc(-c3nc(C4CCN(C)C(=O)C4)n(C(C)C)n3)c2)C2(C)CN(C)C2)cc1` (stereo partly drawn) [Example 42, 4-(5-{5-[(R)-(1,3-Dimethyl-azetidin-3-yl)-hydroxy-(4-isopropyl-phenyl)-methyl]-pyridin-3-yl}-2-isopropyl-2H-[1,2,4]triazol-3-yl)-1-methyl-piperidin-2-one], with 200 nM. Take `CC(C)c1ccc([C@](O)(c2cncc(-c3nc(C4CCOCC4)n(C4CC4)n3)c2)C2(C)CN(CCO)C2)cc1` [Example 36, 2-{3-[(R)-{5-[1-Cyclopropyl-5-(tetrahydro-pyran-4-yl)-1H-[1,2,4]triazol-3-yl]-pyridin-3-yl}-hydroxy-(4-isopropyl-phenyl)-methyl]-3-methyl-azetidin-1-yl}-ethanol]: the IC50 is 116 nM.

Take `CC(C)c1ccc([C@](O)(c2cncc(-c3nc(C45CC(CO)(C4)C5)n(C4CC4)n3)c2)C2(C)CN(C)C2)cc1` [Example 28, (R)-{5-[1-Cyclopropyl-5-(3-hydroxymethyl-bicyclo[1.1.1]pent-1-yl)-1H-[1,2,4]triazol-3-yl]-pyridin-3-yl}-(1,3-dimethyl-azetidin-3-yl)-(4-isopropyl-phenyl)-methanol]: the IC50 was determined as 61.1 nM.

As to `Cc1ncc([C@@](O)(c2ccc(C(C)C)cc2)C2(C)CN(C)C2)cc1-c1nc([C@H]2CC[C@H](O)CC2)n(C2CC2)n1` [Example 40, 4-(2-Cyclopropyl-5-{5-[(R)-(1,3-dimethyl-azetidin-3-yl)-hydroxy-(4-isopropyl-phenyl)-methyl]-2-methyl-pyridin-3-yl}-2H-[1,2,4]triazol-3-yl)-trans-cyclohexanol], the IC50 worked out at 202 nM. Turning to `CC(=O)N[C@H]1CC[C@H](c2nc(-c3cncc([C@@](O)(c4ccc(C(C)C)cc4)C4(C)CN(C)C4)c3)nn2C(C)C)CC1` [Example 43, N-[4-(5-{5-[(R)-(1,3-Dimethyl-azetidin-3-yl)-hydroxy-(4-isopropyl-phenyl)-methyl]-pyridin-3-yl}-2-isopropyl-2H-[1,2,4]triazol-3-yl)-trans-cyclohexyl]-acetamide], the 50% inhibitory concentration (IC50) was found to be 115 nM.

With `COCCn1nc(-c2cncc([C@@](O)(c3ccc(C(C)C)cc3)C3(C)CN(C)C3)c2)nc1C1CCOCC1` [Example 48, (R)-(1,3-Dimethyl-azetidin-3-yl)-(4-isopropyl-phenyl)-{5-[1-(2-methoxy-ethyl)-5-(tetrahydro-pyran-4-yl)-1H-[1,2,4]triazol-3-yl]-pyridin-3-yl}-methanol], the IC50 was 170 nM. In the case of `CC(C)c1ccc([C@](O)(c2cncc(-c3nc(C4CCOCC4)n(C4CC4)n3)c2)C2(C)CN(C)C2)cc1F` [Example 38, (R)-{5-[1-Cyclopropyl-5-(tetrahydro-pyran-4-yl)-1H-[1,2,4]triazol-3-yl]-pyridin-3-yl}-(1,3-dimethyl-azetidin-3-yl)-(3-fluoro-4-isopropyl-phenyl)-methanol] it was 78.1 nM.

Consider `CN1CC(C)([C@](O)(c2ccc(Br)cc2)c2cncc(-c3nc(C4CCOCC4)n(C4CC4)n3)c2)C1` [Example 1, (R)-(4-Bromo-phenyl)-{5-[1-cyclopropyl-5-(tetrahydro-pyran-4-yl)-1H-[1,2,4]triazol-3-yl]-pyridin-3-yl}-(1,3-dimethyl-azetidin-3-yl)-methanol], for which the half-maximal inhibitory concentration (IC50) was found to be 1050 nM. As for `CC(C)c1ccc([C@](O)(c2cncc(-c3nc(CC4(O)CCC4)n(C4CC4)n3)c2)C2(C)CN(C)C2)cc1` [Example 12, 1-(2-Cyclopropyl-5-{5-[(R)-(1,3-dimethyl-azetidin-3-yl)-hydroxy-(4-isopropyl-phenyl)-methyl]-pyridin-3-yl}-2H-[1,2,4]triazol-3-ylmethyl)-cyclobutanol], the IC50 amounted to 114 nM. On to `CCCc1nc(-c2cncc([C@@](O)(c3ccc(C(C)C)cc3)C3(C)CN(C)C3)c2)nn1C(C)C` [Example 41, (R)-(1,3-Dimethyl-azetidin-3-yl)-(4-isopropyl-phenyl)-[5-(1-isopropyl-5-propyl-1H-[1,2,4]triazol-3-yl)-pyridin-3-yl]-methanol], for which the IC50 was 45.3 nM. As to `CC(C)c1ccc([C@](O)(c2cncc(-c3nc(C4CCOCC4)n(C(C)C)n3)c2)C2(C)CN(C)C2)cc1` [Example 19, (R)-(1,3-Dimethyl-azetidin-3-yl)-(4-isopropyl-phenyl)-{5-[1-isopropyl-5-(tetrahydro-pyran-4-yl)-1H-[1,2,4]triazol-3-yl]-pyridin-3-yl}-methanol], the IC50 was 94.8 nM.

On to `CNC(C)(C)c1nc(-c2cncc([C@@](O)(c3ccc(C(C)C)cc3)C3(C)CN(C)C3)c2)nn1C1CC1` [Example 11, (R)-{5-[1-Cyclopropyl-5-(1-methyl-1-methylamino-ethyl)-1H-[1,2,4]triazol-3-yl]-pyridin-3-yl}-(1,3-dimethyl-azetidin-3-yl)-(4-isopropyl-phenyl)-methanol], for which the half-maximal inhibitory concentration (IC50) amounted to 519 nM. In the case of `CC(=O)NCCn1nc(-c2cncc([C@@](O)(c3ccc(C(C)C)cc3)C3(C)CN(C)C3)c2)nc1C1CCOCC1` [Example 50, N-{2-[3-{5-[(R)-(1,3-Dimethyl-azetidin-3-yl)-hydroxy-(4-isopropyl-phenyl)-methyl]-pyridin-3-yl}-5-(tetrahydro-pyran-4-yl)-[1,2,4]triazol-1-yl]-ethyl}-acetamide] it was 481 nM; in that of `CC(C)c1ccc([C@](O)(c2cncc(-c3nc(C4CCOCC4)n(C(C)(C)C)n3)c2)C2(C)CN(C)C2)cc1` [Example 21, (R)-{5-[1-tert-Butyl-5-(tetrahydro-pyran-4-yl)-1H-[1,2,4]triazol-3-yl]-pyridin-3-yl}-(1,3-dimethyl-azetidin-3-yl)-(4-isopropyl-phenyl)-methanol], 39.9 nM; in that of `CC(C)c1ccc([C@](O)(c2cncc(-c3nc(C4(O)CCOCC4)n(C4CC4)n3)c2)C2(C)CN(C)C2)cc1` [Example 30, 4-(2-Cyclopropyl-5-{5-[(R)-(1,3-dimethyl-azetidin-3-yl)-hydroxy-(4-isopropyl-phenyl)-methyl]-pyridin-3-yl}-2H-[1,2,4]triazol-3-yl)-tetrahydro-pyran-4-ol], 98.1 nM. As to `CN1CC(C)([C@](O)(c2ccc(CC(F)(F)F)cc2)c2cncc(-c3nc(C4CCOCC4)n(C4CC4)n3)c2)C1` [Example 5, (R)-{5-[1-Cyclopropyl-5-(tetrahydro-pyran-4-yl)-1H-[1,2,4]triazol-3-yl]-pyridin-3-yl}-(1,3-dimethyl-azetidin-3-yl)-[4-(2,2,2-trifluoro-ethyl)-phenyl]-methanol], the IC50 came to 182 nM. In the case of `CC(C)c1ccc([C@](O)(c2cncc(-c3nc([C@@](C)(O)C(F)(F)F)n(C4CC4)n3)c2)C2(C)CN(C)C2)cc1` [Example 9, (R)-2-(2-Cyclopropyl-5-{5-[(R)-(1,3-dimethyl-azetidin-3-yl)-hydroxy-(4-isopropyl-phenyl)-methyl]-pyridin-3-yl}-2H-[1,2,4]triazol-3-yl)-1,1,1-trifluoro-propan-2-ol] it was 22.2 nM.

Source of the values: patent US20250042881A1, “CCR6 RECEPTOR MODULATORS” (Idorsia Pharmaceuticals Ltd, priority 2021, published 2025).
